According to patent US8895753B2, “S1P receptor modulating agent” (Meiji Seika Pharma Co., Ltd., priority 2011, dated 2014):

Experiments:
Human S1P1 receptor [1] = molecular target: T1, Human S1P1 receptor (Homo sapiens, UniProt P21453); test: Agonist activity at an S1P1 receptor ([35S]-GTPγS exchange reaction, membrane fractions); format: biochemical; settings: read-out: EC50, agonist activity at S1P1 receptor (GTP exchange reaction)
Experimental: (§1) By using membrane fractions prepared from a human S1P1 receptor expressing cells (Multispan Ltd.), the agonist activity of each test compound was measured by [^35S]-GTPγS exchange reaction in accordance with a standard procedure (Methods in Molecular Biology, Vol. 552, p 143-151 (2009)), and EC50 (nM) of each test compound was computed.

Human S1P4 receptor = molecular target: T2, Human S1P4 receptor (Homo sapiens, UniProt O95977); test: Agonist activity at an S1P4 receptor (calcium influx); format: cell-based; settings: at 1000 nM; read-out: activity at S1P4 receptor (elevation of intracellular calcium)
T2 sequence (O95977 1-384): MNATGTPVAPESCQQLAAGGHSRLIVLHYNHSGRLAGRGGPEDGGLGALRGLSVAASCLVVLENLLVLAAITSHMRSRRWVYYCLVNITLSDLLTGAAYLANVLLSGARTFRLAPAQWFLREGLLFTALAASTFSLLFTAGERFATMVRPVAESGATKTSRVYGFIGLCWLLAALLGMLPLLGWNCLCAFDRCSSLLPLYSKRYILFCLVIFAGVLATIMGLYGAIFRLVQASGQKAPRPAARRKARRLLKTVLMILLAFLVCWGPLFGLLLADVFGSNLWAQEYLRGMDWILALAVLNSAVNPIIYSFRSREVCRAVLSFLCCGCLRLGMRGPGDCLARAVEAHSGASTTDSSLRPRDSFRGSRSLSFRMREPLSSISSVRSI
Experimental: By using Human S1P4 receptor expressing cells (Multispan Inc. CG1052-1), the elevation of intracellular calcium concentration via agonist activity by the addition of 1000 nM was measured by Fret method (fluorescence resonance energy transfer).

Human S1P1 receptor [2] = molecular target: T1, Human S1P1 receptor; test: Agonist activity at an S1P1 receptor (reporter assay, EDG1-bla/U2OS cells); format: cell-based; parameters: host or cells: U2OS (EDG1-bla/U2OS); settings: S1P maximum response = 100%
Experimental: Human S1P1 receptor gene recombinant EDG1-bla/U2OS cells (Life Technologies Japan Ltd.) were plated in a 96-well half-sized clear bottom black plate at a density of 10000 cells/32 μL/well, and then the plate was incubated at 37° C. in a 5% CO2 incubator for 48 hours. A culture medium containing each test compound prepared as a 5× concentrate was added at 8 μL/well, and the plate was incubated at 37° C. in a 5% CO2 incubator for 5 hours. The substrate (LiveBLAzer™-FRET B/G substrate (CCF4-AM), Life Technologies Japan Ltd.) prepared as a 6× concentrate was added at 8 μL into each well, and the plate was incubated at room temperature for 2 hours in the dark. The fluorescence intensity of each well was detected using a bottom-reading fluorescence microplate reader (EnVision: ParkinElmer) at one excitation wavelength and 2 wavelengths for fluorescence emission (Ex409 nm, Em460 nm, Em530 nm). The intensity ratio of fluorescence at 460 nm/530 nm was calculated for each well. The maximum response ratio confirmed from the dose response of SIP was expressed as 100%. The concentration of a test compound required to stimulate 50% of its maximal activation was computed as EC50 (nM).

Human S1P3 receptor = Human S1P3 receptor (Homo sapiens, UniProt Q99500); test: Agonist activity at an S1P3 receptor ([35S]-GTPγS exchange reaction at 1000 nM); format: biochemical; settings: read-out: percent of the maximal agonist activity at S1P3 receptor
Chain of Human S1P3 receptor (Q99500 whole entry): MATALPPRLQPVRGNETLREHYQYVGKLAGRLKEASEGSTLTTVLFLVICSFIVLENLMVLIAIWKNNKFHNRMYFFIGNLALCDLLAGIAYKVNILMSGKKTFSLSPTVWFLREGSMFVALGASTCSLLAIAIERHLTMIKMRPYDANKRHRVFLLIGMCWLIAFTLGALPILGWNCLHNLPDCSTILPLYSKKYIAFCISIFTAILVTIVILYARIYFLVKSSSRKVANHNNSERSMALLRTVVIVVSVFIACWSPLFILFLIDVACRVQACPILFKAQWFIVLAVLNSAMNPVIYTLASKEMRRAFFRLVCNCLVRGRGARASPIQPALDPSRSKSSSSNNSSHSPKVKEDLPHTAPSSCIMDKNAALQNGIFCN
Experimental: as §1
By using membrane fractions prepared from Human S1P3 receptor expressing cells (Multispan Inc.), the agonist activity of the compound in the present invention was measured by a [^35S]-GTPγS exchange reaction at 1000 nM by the similar method of the Experimental Example 2.

T1 sequence (P21453 whole entry): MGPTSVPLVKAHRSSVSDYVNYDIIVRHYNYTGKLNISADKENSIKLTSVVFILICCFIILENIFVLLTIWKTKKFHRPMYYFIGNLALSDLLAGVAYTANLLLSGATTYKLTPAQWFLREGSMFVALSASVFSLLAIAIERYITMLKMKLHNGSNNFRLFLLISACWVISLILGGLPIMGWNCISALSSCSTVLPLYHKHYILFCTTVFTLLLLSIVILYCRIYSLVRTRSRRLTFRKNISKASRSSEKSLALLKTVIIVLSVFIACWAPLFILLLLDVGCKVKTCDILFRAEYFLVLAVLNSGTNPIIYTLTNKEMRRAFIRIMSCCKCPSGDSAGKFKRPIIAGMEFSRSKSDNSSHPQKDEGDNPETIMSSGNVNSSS

| EC50 (Human S1P1 receptor [1]) | activation at 1 µM (Human S1P4 receptor) | EC50 (Human S1P1 receptor [2]) | Emax at 1 µM (Human S1P3 receptor) | SMILES |
| --- | --- | --- | --- | --- |
| ≤ 0.05 µM | < 20% | ≤ 0.1 µM | < 20% | CCOc1ccc(-c2cnc(-c3ccc(CN4CC(C(=O)O)C4)cc3)s2)cc1 [Example 31, 1-(4-(5-(4-ethoxyphenyl)thiazol-2-yl)benzyl)azetidine-3-carboxylic acid] |
| ≤ 0.01 µM | < 20% | ≤ 0.001 µM | < 20% | O=C(O)C1CN(Cc2ccc(-c3ncc(-c4ccc(C5CCCC5)cc4)s3)cc2)C1 [Example 34, 1-(4-(5-(4-cyclopentylphenyl)thiazol-2-yl)benzyl)azetidine-3-carboxylic acid] |
| ≤ 0.1 µM | < 20% | ≤ 0.01 µM | < 20% | O=C(O)C1CN(Cc2ccc(-c3ncc(-c4ccc(C5CCCCC5)cc4)s3)cc2)C1 [Example 36, 1-(4-(5-(4-cyclohexylphenyl)thiazol-2-yl)benzyl)azetidine-3-carboxylic acid] |
| ≤ 0.01 µM | < 20% | ≤ 0.001 µM | 20 to 50% | Cc1cc(CN2CC(C(=O)O)C2)ccc1-c1ncc(-c2ccc(OC(C)C)c(Cl)c2)s1 [Example 37, 1-(4-(5-(3-chloro-4-isopropoxyphenyl)thiazol-2-yl)-3-methylbenzyl)azetidine-3-carboxylic acid] |
| ≤ 0.05 µM | < 20% | ≤ 0.1 µM | < 20% | CCCOc1ccc(-c2cnc(-c3ccc(CN4CC(C(=O)O)C4)cc3)s2)cc1 [Example 38] |
| ≤ 0.05 µM | < 20% | ≤ 0.01 µM | < 20% | CCCc1ccc(-c2cnc(-c3ccc(CN4CC(C(=O)O)C4)cc3)s2)cc1 [Example 45, 1-(4-(5-(4-propylphenyl)thiazol-2-yl)benzyl)azetidine-3-carboxylic acid] |
| ≤ 0.05 µM | < 20% | ≤ 0.01 µM | < 20% | CC(C)c1ccc(-c2cnc(-c3ccc(CN4CC(C(=O)O)C4)cc3)s2)cc1 [Example 46, 1-(4-(5-(4-isopropylphenyl)thiazol-2-yl)benzyl)azetidine-3-carboxylic acid] |
| ≤ 0.05 µM | < 20% | ≤ 0.01 µM | < 20% | CCCCc1ccc(-c2cnc(-c3ccc(CN4CC(C(=O)O)C4)cc3)s2)cc1 [Example 47, 1-(4-(5-(4-butylphenyl)thiazol-2-yl)benzyl)azetidine-3-carboxylic acid] |
| ≤ 0.05 µM | < 20% | ≤ 0.001 µM | 20 to 50% | CC(C)Cc1ccc(-c2cnc(-c3ccc(CN4CC(C(=O)O)C4)cc3)s2)cc1 [Example 48, 1-(4-(5-(4-isobutylphenyl)thiazol-2-yl)benzyl)azetidine-3-carboxylic acid] |
| ≤ 0.05 µM | < 20% | ≤ 0.001 µM | 20 to 50% | CC(C)Oc1ccc(-c2cnc(-c3ccc(CN4CC(C(=O)O)C4)cc3)s2)cc1C#N [Example 50, 1-(4-(5-(3-cyano-4-isopropoxyphenyl)thiazol-2-yl)benzyl)azetidine-3-carboxylic acid] |
| ≤ 0.05 µM | < 20% | ≤ 0.001 µM | 20 to 50% | Cc1cc(-c2cnc(-c3ccc(CN4CC(C(=O)O)C4)cc3)s2)ccc1OC(C)C [Example 52, 1-(4-(5-(4-isopropoxy-3-methylphenyl)thiazol-2-yl)benzyl)azetidine-3-carboxylic acid] |
| ≤ 0.5 µM | < 20% | ≤ 0.01 µM | 20 to 50% | CC(C)Oc1ccc(-c2cnc(-c3ccc(CN4CC(C(=O)O)C4)cc3)s2)cc1F [Example 53, 1-(4-(5-(3-fluoro-4-isopropoxyphenyl)thiazol-2-yl)benzyl)azetidine-3-carboxylic acid] |
| ≤ 0.5 µM | < 20% | ≤ 0.01 µM | < 20% | CC(C)Oc1ccc(-c2cnc(-c3ccc(CN4CC(C(=O)O)C4)cc3)s2)c(C(F)(F)F)c1 [Example 55, 1-(4-(5-(4-isopropoxy-2-(trifluoromethyl)phenyl)thiazol-2-yl)benzyl)azetidine-3-carboxylic acid] |
| ≤ 0.1 µM | < 20% | ≤ 0.001 µM | 20 to 50% | CC(C)Oc1ccc(-c2cnc(-c3ccc(CN4CC(C(=O)O)C4)cc3)s2)cc1C(F)(F)F [Example 56, 1-(4-(5-(4-isopropoxy-3-(trifluoromethyl)phenyl)thiazol-2-yl)benzyl)azetidine-3-carboxylic acid] |
| ≤ 0.05 µM | < 20% | ≤ 0.001 µM | < 20% | CC(C)Oc1ccc(-c2cnc(-c3ccc(CN4CC(C(=O)O)C4)c(F)c3)s2)cc1Cl [Example 57, 1-(4-(5-(3-chloro-4-isopropoxyphenyl)thiazol-2-yl)-2-fluorobenzyl)azetidine-3-carboxylic acid] |
| ≤ 0.05 µM | < 20% | ≤ 0.001 µM | < 20% | CC(C)Oc1ccc(-c2cnc(-c3ccc(CN4CC(C(=O)O)C4)c(C(F)(F)F)c3)s2)cc1Cl [Example 58, 1-(4-(5-(3-chloro-4-isopropoxyphenyl)thiazol-2-yl)-2-(trifluoromethyl)benzyl)azetidine-3-carboxylic acid] |
| ≤ 0.05 µM | < 20% | ≤ 0.001 µM | < 20% | CC(C)Cc1ccc(-c2cnc(-c3ccc(CN4CC(C(=O)O)C4)cc3F)s2)cc1C#N [Example 59, 1-(4-(5-(3-cyano-4-isobutylphenyl)thiazol-2-yl)-3-fluorobenzyl)azetidine-3-carboxylic acid] |
| ≤ 0.01 µM | < 20% | ≤ 0.001 µM | 20 to 50% | CC(C)Oc1ccc(-c2cnc(-c3ccc(CN4CC(C(=O)O)C4)cc3Cl)s2)cc1Cl [Example 60, 1-(3-chloro-4-(5-(3-chloro-4-isopropoxyphenyl)thiazol-2-yl)benzyl)azetidine-3-carboxylic acid] |
| ≤ 0.01 µM | < 20% | ≤ 0.1 µM | < 20% | COc1cc(CN2CC(C(=O)O)C2)ccc1-c1ncc(-c2ccc(OC(C)C)c(Cl)c2)s1 [Example 61, 1-(4-(5-(3-chloro-4-isopropoxyphenyl)thiazol-2-yl)-3-methoxybenzyl)azetidine-3-carboxylic acid] |
| ≤ 0.01 µM | < 20% | ≤ 0.001 µM | 20 to 50% | Cc1cc(-c2ncc(-c3ccc(OC(C)C)c(Cl)c3)s2)ccc1CN1CC(C(=O)O)C1 [Example 62, 1-(4-(5-(3-chloro-4-isopropoxyphenyl)thiazol-2-yl)-2-methylbenzyl)azetidine-3-carboxylic acid] |
| ≤ 0.05 µM | < 20% | ≤ 0.001 µM | < 20% | CC(C)Oc1ccc(-c2cnc(-c3ccc(CN4CC(C(=O)O)C4)c(Cl)c3)s2)cc1Cl [Example 63, 1-(2-chloro-4-(5-(3-chloro-4-isopropoxyphenyl)thiazol-2-yl)benzyl)azetidine-3-carboxylic acid] |

| SMILES | EC50 (Human S1P1 receptor [1]) | activation at 1 µM (Human S1P4 receptor) | EC50 (Human S1P1 receptor [2]) | Emax at 1 µM (Human S1P3 receptor) |
| --- | --- | --- | --- | --- |
| O=C(O)C1CN(Cc2ccc(-c3ncc(-c4ccc(OC5CCC5)cc4)s3)cc2)C1 [Example 51, 1-(4-(5-(4-cyclobutoxyphenyl)thiazol-2-yl)benzyl)azetidine-3-carboxylic acid] | ≤ 0.5 µM | < 20% | ≤ 0.1 µM | 20 to 50% |
